Data: patent publication US10058533B2, “Pharmaceutical composition containing Ginkgolide B and Xa factor inhibitor, preparation method thereof and use thereof” (CHENGDU BAIYU PHARMACEUTICAL CO., LTD, priority 2014, dated 2018)

Assays:
[1] = system: PAF (Platelet activating factor); assay: Plasma PAF content by ELISA, rabbit wound-limb deep venous thrombosis forming model; format: in vivo; conditions: for PAF content (x ± SD): rabbit wound-limb deep venous thrombosis model, *p<0.05, **p<0.01, ***p<0.001 vs model group; for PAF content compared to model group: 4 h after administration
Method: Eight were taken as control group and the rest were treated by a striking device. […] Specifically: the rabbit was anesthetized by intravenous injection of 3% pentobarbital sodium at ear edge with the dose of 1 ml/kg. The rabbit was kept laying down at right side prostrate position and the left thigh was set on the striking platform. […] The self-made striking device was used for striking the outer side of the thigh near-end, and the plaster was used for fixing the left limb on the hip/knee-bending area. When the plaster bandage was applied and the right hip was examined to move freely, the rabbit was kept to lay down until solidification. After the model establishment, the animal was allowed to drink water normally and was fed with granular food. No anticoagulant or antibiotic was used. Animals were grouped after modeling. The drug was fed according to table 4 via oral gavage, once a day for 7 days continuously. At 0.5, 1.0, 2.0, 3.0 and 4.0 h after the first administration, blood was taken from ear central artery. Plasma was separated and the content of PAF was determined by ELISA.

[2] = system: coagulation function (PT); assay: PT of coagulation function, rabbit wound-limb deep venous thrombosis forming model; format: in vivo; conditions: 5 mg/kg i.g., x ± SD
Method: (§1) Eight were taken as control group and the rest were treated by a striking device. Striking area was a round surface with the diameter of 1.5 cm, the wounding energy was calculated according to Ep=mgh, and the energy of each striking of the iron rod is 7.5 J.
(§2) Specifically: the rabbit was anesthetized by intravenous injection of 3% pentobarbital sodium at ear edge with the dose of 1 ml/kg. The rabbit was kept laying down at right side prostrate position and the left thigh was set on the striking platform. Found the trochanter of the left femur and set the striking head attached to area from the trochanter to the 1.5 cm below. The self-made striking device was used for striking the outer side of the thigh near-end, and the plaster was used for fixing the left limb on the hip/knee-bending area. When the plaster bandage was applied and the right hip was examined to move freely, the rabbit was kept to lay down until solidification. After the model establishment, the animal was allowed to drink water normally and was fed with granular food. No anticoagulant or antibiotic was used.
(§3) Animals were grouped after modeling. The drug was fed according to table 4 via oral gavage, once a day for 7 days continuously.
(§4) At 0.5, 1.0, 2.0, 3.0 and 4.0 h after the first administration, blood was taken from ear central artery. Plasma was separated and aPPT, PT and the anti-factor Xa activity were determined on an automatic coagulation detector.

[3] = system: coagulation function (aPTT); assay: aPTT of coagulation function, rabbit wound-limb deep venous thrombosis forming model; format: in vivo; conditions: for aPPT: 5 mg/kg i.g., x ± SD
Method: as §1, §2, §3, §4

[4] = system: factor Xa; assay: Plasma anti-factor Xa activity, rabbit wound-limb deep venous thrombosis forming model; format: in vivo
Method: as §1, §2, §3, §4

[5] = system: factor Xa; assay: Anti-coagulation factor Xa activity in vitro (chromogenic substrate assay); format: biochemical, rabbit
Method: A chromogenic substrate assay was adopted, and plasma anti-Xa activity was determined on a microplate reader according to a kit specification and reference documents.

[6] = plasma, 5 mg/kg i.g., 0.5 h after administration, x ± SD
[7] = plasma, 5 mg/kg i.g., 1 h after administration, x ± SD
[8] = plasma, 5 mg/kg i.g., 2 h after administration, x ± SD
[9] = plasma, 5 mg/kg i.g., 3 h after administration, x ± SD
[10] = plasma, 5 mg/kg i.g., 4 h after administration, x ± SD

Structure (SMILES): CN1CCc2nc(C(=O)N[C@@H]3C[C@@H](C(=O)N(C)C)CC[C@@H]3NC(=O)C(=O)Nc3ccc(Cl)cn3)sc2C1 [Edoxaban]
- PAF content (x ± SD) ([1]; 1 h after administration): 1236.72 ± 301.62 ng/L
- PAF content (x ± SD) ([1]; 3 h after administration): 1623.43 ± 256.35 ng/L
- PT ([2]; 0.5 h after administration): 6.73 ± 0.15 s
- PT ([2]; 1 h after administration): 6.14 ± 0.26 s
- PT ([2]; 2 h after administration): 6.28 ± 0.42 s
- PT ([2]; 3 h after administration): 6.45 ± 0.65 s
- PT ([2]; 4 h after administration): 6.42 ± 0.34 s
- aPPT ([3]; 0.5 h after administration): 26.77 ± 7.65 s
- aPPT ([3]; 1 h after administration): 25.01 ± 9.52 s
- aPPT ([3]; 2 h after administration): 33.63 ± 5.45 s
- aPPT ([3]; 3 h after administration): 36.47 ± 9.12 s
- aPPT ([3]; 4 h after administration): 27.20 ± 6.31 s
- aPTT compared with model group ([3]; 1 h after administration): no obvious extension

Structure (SMILES): COc1ccc(-n2nc(C(N)=O)c3c2C(=O)N(c2ccc(N4CCCCC4=O)cc2)CC3)cc1 [Apixaban]
- anti-factor Xa activity ([4]; 0.5 h-4 h after administration): extremely significant difference
- anti-factor Xa activity [4, 6]: 0.16 ± 0.10 IU/ml
- anti-factor Xa activity [4, 7]: 0.26 ± 0.04 IU/ml
- anti-factor Xa activity [4, 8]: 0.25 ± 0.10 IU/ml
- anti-factor Xa activity [4, 9]: 1.22 ± 0.22 IU/ml
- anti-factor Xa activity [4, 10]: 1.12 ± 0.15 IU/ml
- anti-factor Xa activity [5]: 1.07 IU/ml
- PAF content (x ± SD) ([1]; 1 h after administration): 1543.57 ± 239.95 ng/L
- PAF content (x ± SD) ([1]; 2 h after administration): 1117.86 ± 231.52 ng/L
- PAF content (x ± SD) ([1]; 3 h after administration): 1865.71 ± 371.23 ng/L
- PAF content compared to model group [1]: extremely significant decrease
- aPPT ([3]; 0.5 h after administration): 19.05 ± 6.17 s
- aPPT ([3]; 1 h after administration): 24.26 ± 7.89 s
- aPPT ([3]; 2 h after administration): 23.94 ± 5.49 s
- aPPT ([3]; 3 h after administration): 31.71 ± 8.53 s
- aPPT ([3]; 4 h after administration): 29.21 ± 11.35 s
- aPTT compared with model group ([3]; 1 h after administration): no obvious extension

Structure (SMILES): O=C(NC[C@H]1CN(c2ccc(N3CCOCC3=O)cc2)C(=O)O1)c1ccc(Cl)s1 [Rivaroxaban]
- anti-factor Xa activity ([4]; 0.5 h-4 h after administration): extremely significant difference
- anti-factor Xa activity [4, 6]: 0.37 ± 0.09 IU/ml
- anti-factor Xa activity [4, 7]: 0.31 ± 0.13 IU/ml
- anti-factor Xa activity [4, 8]: 0.18 ± 0.05 IU/ml
- anti-factor Xa activity [4, 9]: 1.32 ± 0.16 IU/ml
- anti-factor Xa activity [4, 10]: 1.38 ± 0.18 IU/ml
- anti-factor Xa activity [5]: 0.54 IU/ml
- PAF content (x ± SD) ([1]; 0.5 h after administration): 886.43 ± 314.24 ng/L
- PAF content (x ± SD) ([1]; 1 h after administration): 1484.29 ± 129.00 ng/L
- PAF content (x ± SD) ([1]; 3 h after administration): 1671.43 ± 236.95 ng/L
- PAF content compared to model group [1]: extremely significant decrease
- PT ([2]; 0.5 h after administration): 6.76 ± 0.30 s
- PT ([2]; 1 h after administration): 7.20 ± 0.96 s
- PT ([2]; 2 h after administration): 6.90 ± 0.34 s
- PT ([2]; 3 h after administration): 6.81 ± 0.22 s
- PT ([2]; 4 h after administration): 6.70 ± 0.33 s
- aPPT ([3]; 0.5 h after administration): 27.89 ± 7.97 s
- aPPT ([3]; 1 h after administration): 32.01 ± 9.31 s
- aPPT ([3]; 2 h after administration): 34.63 ± 5.57 s
- aPPT ([3]; 3 h after administration): 35.92 ± 10.85 s
- aPPT ([3]; 4 h after administration): 29.20 ± 6.32 s
- aPTT compared with model group ([3]; 1 h after administration): obviously extended
